Test results from publication PMC10272180, “Ancient medicinal plant rosemary contains a highly efficacious and isoform-selective KCNQ potassium channel opener” (Communications Biology, 2023).

What was measured:
KCNQ2/3 = target: T1, KCNQ2/3 (Homo sapiens, UniProt O43525+O43526); experiment: TEVC of KCNQ2/3 heteromers expressed in Xenopus laevis oocytes; type: cell-based
T1 construct: expressed in transfected cells; host or cells: Xenopus laevis oocytes co-injected with cRNAs
Text: (§1) We generated cRNA transcripts encoding human KCNQ1, 2, 3, and 5 (wild-type and mutant) by in vitro transcription using the mMessage mMachine kit (Thermo Fisher Scientific, Waltham, MA, USA) according to manufacturer’s instructions, after vector linearization, from cDNA sub-cloned into expression vectors (pTLNx and pXOOM) incorporating Xenopus laevis β-globin 5’ and 3’ UTRs flanking the coding region to enhance translation and cRNA stability. Mutant KCNQ cDNAs were generated by Genscript (Piscataway, NJ, USA) and cRNAs made as above. We injected defolliculated stage V and VI Xenopus laevis oocytes (Xenoocyte, Dexter, MI, USA) with KCNQ cRNAs (2–10 ng) and incubated the oocytes at 16 °C in ND96 oocyte storage solution containing penicillin and streptomycin, with daily washing, for 2–4 days prior to two-electrode voltage-clamp (TEVC) recording.
We placed oocytes in a small-volume oocyte bath (Warner) and viewed them with a dissection microscope for cellular electrophysiology. We sourced chemicals from Sigma-Aldrich (St. Louis, MO, USA) and Combi-Blocks (San Diego, CA, USA). We studied effects of Salvia rosmarinus extracts and of compounds, solubilized directly in bath solution (in mM): 96 NaCl, 4 KCl, 1 MgCl2, 1 CaCl2, 10 HEPES (pH 7.6). We introduced extracts or compounds into the oocyte recording bath by gravity perfusion at a constant flow of 1 ml per minute for 3 min prior to recording. Pipettes were of 1-2 MΩ resistance when filled with 3 M KCl. […] We analyzed data using Clampfit (Molecular Devices) and Graphpad Prism software (GraphPad, San Diego, CA, USA), stating values as mean ± SEM. We plotted raw or normalized tail currents versus prepulse voltage and fitted with a single Boltzmann function:1 g=(A1−A2)/1+exp[V1/2−V/Vs]y+A2 where g is the normalized tail conductance, A1 is the initial value at -∞, A2 is the final value at +∞, V1/2 is the half-maximal voltage of activation and Vs the slope factor. We fitted activation and deactivation kinetics with single exponential functions.

KCNQ5 = KCNQ5 (Homo sapiens, UniProt Q9NR82); experiment: TEVC of KCNQ5 homomers expressed in Xenopus laevis oocytes; type: cell-based
Text: as §1
(§2) We performed TEVC at room temperature using an OC-725C amplifier (Warner Instruments, Hamden, CT, USA) and pClamp10 software (Molecular Devices, Sunnyvale, CA, USA) 2–4 days after cRNA injection. We placed oocytes in a small-volume oocyte bath (Warner) and viewed them with a dissection microscope for cellular electrophysiology. We sourced chemicals from Sigma-Aldrich (St. Louis, MO, USA) and Combi-Blocks (San Diego, CA, USA). We studied effects of Salvia rosmarinus extracts and of compounds, solubilized directly in bath solution (in mM): 96 NaCl, 4 KCl, 1 MgCl2, 1 CaCl2, 10 HEPES (pH 7.6). We introduced extracts or compounds into the oocyte recording bath by gravity perfusion at a constant flow of 1 ml per minute for 3 min prior to recording. Pipettes were of 1-2 MΩ resistance when filled with 3 M KCl. We recorded currents in response to voltage pulses between −120 mV and +40 mV at 10 mV intervals from a holding potential of −80 mV, to yield current-voltage relationships and examine activation kinetics. We analyzed data using Clampfit (Molecular Devices) and Graphpad Prism software (GraphPad, San Diego, CA, USA), stating values as mean ± SEM. We plotted raw or normalized tail currents versus prepulse voltage and fitted with a single Boltzmann function:1 g=(A1−A2)/1+exp[V1/2−V/Vs]y+A2 where g is the normalized tail conductance, A1 is the initial value at -∞, A2 is the final value at +∞, V1/2 is the half-maximal voltage of activation and Vs the slope factor. We fitted activation and deactivation kinetics with single exponential functions.

KCNQ3*-M240A = KCNQ3*-M240A (Homo sapiens, UniProt O43525, A315T/M240A); experiment: TEVC of mutant KCNQ3*-M240A in oocytes; type: cell-based; details: 100 µM
Text: as §1
as §2, with “We plotted raw or normalized tail currents versus prepulse voltage and fitted with a single Boltzmann function:1 g=(A1−A2)/1+exp[V1/2−V/Vs]y+A2 where g is the normalized tail conductance, A1 is the initial value at -∞, A2 is the final value at +∞, V1/2 is the half-maximal voltage of activation and Vs the slope factor. We fitted activation and deactivation kinetics with single exponential functions.” left out

KCNQ3*-L198F = KCNQ3*-L198F (Homo sapiens, UniProt O43525, A315T/L198F); experiment: TEVC of mutant KCNQ3*-L198F in oocytes; type: cell-based
Text: as §1
as §2, with “We recorded currents in response to voltage pulses between −120 mV and +40 mV at 10 mV intervals from a holding potential of −80 mV, to yield current-voltage relationships and examine activation kinetics.” left out

mice = details: acute toxicity; cited from earlier work

Structure (SMILES): CC(C)c1cc2c(c(O)c1O)[C@@]1(C(=O)O)CCCC(C)(C)[C@@H]1CC2 [Carnosic acid, carnosic acid]
- V0.5 Normalized tail current (KCNQ2/3; 0.1 µM): -44.63 ± 0.46 mV
- V0.5 Normalized tail current (KCNQ2/3; 1 µM): -45.44 ± 0.41 mV
- V0.5 Normalized tail current (KCNQ2/3; 3 µM): -46.40 ± 0.45 mV
- V0.5 Normalized tail current (KCNQ2/3; 10 µM): -47.94 ± 0.61 mV
- V0.5 Normalized tail current (KCNQ2/3; 30 µM): -49.09 ± 0.55 mV
- V0.5 Normalized tail current (KCNQ2/3; 100 µM): -49.95 ± 0.65 mV
- activity across the concentration range tested (KCNQ2/3; 0.1-100 µM): only weakly active
- V0.5 Normalized tail current (KCNQ5; 0.1 µM): -42.57 ± 0.34 mV
- V0.5 Normalized tail current (KCNQ5; 1 µM): -42.20 ± 0.27 mV
- V0.5 Normalized tail current (KCNQ5; 3 µM): -42.54 ± 0.31 mV
- V0.5 Normalized tail current (KCNQ5; 10 µM): -43.64 ± 0.36 mV
- V0.5 Normalized tail current (KCNQ5; 30 µM): -45.91 ± 0.40 mV
- V0.5 Normalized tail current (KCNQ5; 100 µM): -50.99 ± 0.49 mV
- constitutively activated current at −120 mV (KCNQ5; 100 µM): ~ 5%
- EC50 (KCNQ5; EC50 EM): 43.4 ± 0.28 µM
- EC50 (KCNQ5; EC50 V0.5 Activation): 231 ± 75 µM
- Slope (KCNQ3*-M240A): 17.31 ± 1.56 mV
- V0.5 Normalized tail current (KCNQ3*-M240A): -66.81 ± 1.80 mV
- constitutive current at −120 mV (KCNQ3*-M240A): 20%
- V0.5 Normalized tail current (KCNQ3*-L198F; 0.1 µM): -58.22 ± 0.59 mV
- V0.5 Normalized tail current (KCNQ3*-L198F; 1 µM): -62.90 ± 0.79 mV
- V0.5 Normalized tail current (KCNQ3*-L198F; 3 µM): -73.56 ± 0.79 mV
- V0.5 Normalized tail current (KCNQ3*-L198F; 10 µM): -91.66 ± 1.99 mV
- V0.5 Normalized tail current (KCNQ3*-L198F; 30 µM): -116.6 ± 3.44 mV
- EC50 (KCNQ3*-L198F; EC50 EM): 1.15 ± 0.12 µM
- EC50 (KCNQ3*-L198F; EC50 V0.5 Activation): 6.28 ± 0.08 µM
- carnosic acid efficacy and potency compared with KCNQ3* (KCNQ3*-L198F; dose-response): very similarly
- oral LD50 (mice): 7100 mg/kg
